Conditions: Fluid (supercritical or subcritical phases)

CC(F)(F)CC(F)(F)F [1,1,1,3,3-pentafluorobutane]
Conditions	speed of sound [m/s]
250 K, 1105.2 kPa	921.65
250 K, 2105.8 kPa	926.73
250 K, 3106.3 kPa	931.74
250 K, 4106.9 kPa	936.7
250 K, 5107.4 kPa	941.59
250 K, 6108.3 kPa	946.43
250 K, 7108.9 kPa	951.22
250 K, 8108.1 kPa	955.95
250 K, 9108.8 kPa	960.64
250 K, 10110 kPa	965.28
250 K, 12611 kPa	976.67
250 K, 15113 kPa	987.78
250 K, 17614 kPa	998.62
250 K, 20116 kPa	1009.2
250 K, 25120 kPa	1029.8
250 K, 30123 kPa	1049.5
250 K, 35127 kPa	1068.4
250 K, 40130 kPa	1086.7
250 K, 45133 kPa	1104.4
250 K, 50137 kPa	1121.5
260 K, 1104.3 kPa	881.57
260 K, 2104.8 kPa	886.96
260 K, 3105.3 kPa	892.27
260 K, 4105.9 kPa	897.52
260 K, 5106.3 kPa	902.7
260 K, 6107.9 kPa	907.82
260 K, 7109.2 kPa	912.89
260 K, 8109.9 kPa	917.88
260 K, 9110.7 kPa	922.82
260 K, 10112 kPa	927.71
260 K, 12613 kPa	939.68
260 K, 15115 kPa	951.34
260 K, 17617 kPa	962.7
260 K, 20118 kPa	973.79
260 K, 25122 kPa	995.21
260 K, 30126 kPa	1015.7
260 K, 35129 kPa	1035.4
260 K, 40133 kPa	1054.3
260 K, 45136 kPa	1072.6
260 K, 50140 kPa	1090.3
260 K, 60146 kPa	1124.1
260 K, 70153 kPa	1155.9
260 K, 80160 kPa	1186.1
260 K, 90167 kPa	1214.9
260 K, 100174 kPa	1242.4
280 K, 1104.4 kPa	803.31
280 K, 2104.9 kPa	809.41
280 K, 3105.4 kPa	815.42
280 K, 4106 kPa	821.34
280 K, 5106.6 kPa	827.16
280 K, 6107.8 kPa	832.89
280 K, 7108.5 kPa	838.55
280 K, 8109.3 kPa	844.12
280 K, 9110.2 kPa	849.62
280 K, 10111 kPa	855.04
280 K, 12613 kPa	868.29
280 K, 15114 kPa	881.13
280 K, 17616 kPa	893.6
280 K, 20118 kPa	905.71
280 K, 25121 kPa	929
280 K, 30124 kPa	951.17
280 K, 35128 kPa	972.34
280 K, 40131 kPa	992.62
280 K, 45135 kPa	1012.1
280 K, 50138 kPa	1030.9
280 K, 60145 kPa	1066.6
280 K, 70152 kPa	1100.2
280 K, 80159 kPa	1131.9
280 K, 90166 kPa	1162
280 K, 100172 kPa	1190.6
300 K, 1104.5 kPa	727.1
300 K, 2105 kPa	734.06
300 K, 3105.5 kPa	740.9
300 K, 4106 kPa	747.61
300 K, 5107 kPa	754.19
300 K, 6107.6 kPa	760.65
300 K, 7107.1 kPa	766.96
300 K, 8107.8 kPa	773.21
300 K, 9108.4 kPa	779.34
300 K, 10110 kPa	785.37
300 K, 12612 kPa	800.06
300 K, 15114 kPa	814.23
300 K, 17616 kPa	827.91
300 K, 20117 kPa	841.15
300 K, 25121 kPa	866.44
300 K, 30125 kPa	890.34
300 K, 35129 kPa	913.06
300 K, 40132 kPa	934.74
300 K, 45136 kPa	955.48
300 K, 50139 kPa	975.38
300 K, 60146 kPa	1013.1
300 K, 70153 kPa	1048.3
300 K, 80160 kPa	1081.4
300 K, 90167 kPa	1112.7
300 K, 100174 kPa	1142.5
319.99 K, 2104.9 kPa	660.37
319.99 K, 3105.5 kPa	668.24
319.99 K, 4106.3 kPa	675.92
319.99 K, 5107.7 kPa	683.41
319.99 K, 6108.6 kPa	690.74
319.99 K, 7109.3 kPa	697.91
319.99 K, 8110 kPa	704.93
320 K, 9111.2 kPa	711.77
320 K, 10112 kPa	718.52
320 K, 12614 kPa	734.86
320 K, 15115 kPa	750.5
320 K, 17617 kPa	765.53
320 K, 20119 kPa	779.98
320 K, 25123 kPa	807.44
320 K, 30126 kPa	833.19
320 K, 35130 kPa	857.51
320 K, 40134 kPa	880.59
320 K, 45137 kPa	902.59
320 K, 50141 kPa	923.63
320 K, 60148 kPa	963.25
320 K, 70155 kPa	1000.1
320 K, 80162 kPa	1034.6
320 K, 90169 kPa	1067.1
320 K, 100176 kPa	1098
320.01 K, 1103.1 kPa	652.28
340 K, 1105.8 kPa	578.15
340 K, 2106.4 kPa	587.65
340 K, 3107 kPa	596.83
340 K, 4107.5 kPa	605.73
340 K, 5108.1 kPa	614.36
340 K, 6109.1 kPa	622.75
340 K, 7109.7 kPa	630.92
340 K, 8108.9 kPa	638.86
340 K, 9109.4 kPa	646.62
340 K, 10110 kPa	654.2
340 K, 12611 kPa	672.43
340 K, 15113 kPa	689.74
340 K, 17614 kPa	706.24
340 K, 20116 kPa	722.03
340 K, 25119 kPa	751.78
340 K, 30122 kPa	779.47
340 K, 35124 kPa	805.42
340 K, 40128 kPa	829.93
340 K, 45131 kPa	853.19
340 K, 50135 kPa	875.34
340 K, 60142 kPa	916.86
340 K, 70150 kPa	955.26
340 K, 80157 kPa	991.12
340 K, 90164 kPa	1024.8
340 K, 100171 kPa	1056.7
360 K, 1102.1 kPa	503.74
360 K, 2102.7 kPa	515.2
360 K, 3103.3 kPa	526.14
360 K, 4104 kPa	536.64
360 K, 5104.8 kPa	546.73
360 K, 6106.2 kPa	556.45
360 K, 7106.9 kPa	565.84
360 K, 8107.7 kPa	574.94
360 K, 9108.4 kPa	583.75
360 K, 10109 kPa	592.32
360 K, 12611 kPa	612.74
360 K, 15113 kPa	631.92
360 K, 17615 kPa	650.07
360 K, 20117 kPa	667.31
360 K, 25120 kPa	699.5
360 K, 30124 kPa	729.19
360 K, 35127 kPa	756.83
360 K, 40130 kPa	782.78
360 K, 45134 kPa	807.28
360 K, 50137 kPa	830.52
360 K, 60144 kPa	873.89
360 K, 70151 kPa	913.8
360 K, 80158 kPa	950.91
360 K, 90165 kPa	985.68
360 K, 100172 kPa	1018.5
379.99 K, 1100.8 kPa	427.28
379.99 K, 2101.7 kPa	441.66
379.99 K, 3102.1 kPa	455.12
379.99 K, 4102.7 kPa	467.8
379.99 K, 5103.4 kPa	479.82
379.99 K, 6104.7 kPa	491.27
379.99 K, 7105.5 kPa	502.21
379.99 K, 8106.3 kPa	512.71
379.99 K, 9107.5 kPa	522.81
379.99 K, 10108 kPa	532.54
379.99 K, 12610 kPa	555.5
379.99 K, 15112 kPa	576.81
379.99 K, 17614 kPa	596.76
379.99 K, 20116 kPa	615.56
379.99 K, 25119 kPa	650.34
379.99 K, 30123 kPa	682.08
379.99 K, 35126 kPa	711.42
379.99 K, 40130 kPa	738.79
379.99 K, 45134 kPa	764.51
379.99 K, 50137 kPa	788.83
379.99 K, 60144 kPa	833.97
379.99 K, 70151 kPa	875.31
379.99 K, 80158 kPa	913.6
379.99 K, 90166 kPa	949.39
379.99 K, 100173 kPa	983.05
400 K, 1605.2 kPa	355.52
400 K, 2105.7 kPa	364.94
400 K, 3106.4 kPa	382.38
400 K, 4107.2 kPa	398.31
400 K, 5108.1 kPa	413.05
400 K, 6107.8 kPa	426.8
400 K, 7108.6 kPa	439.76
400 K, 8109.4 kPa	452.03
400 K, 9110.2 kPa	463.7
400 K, 10111 kPa	474.85
400 K, 12613 kPa	500.78
400 K, 15114 kPa	524.48
400 K, 17616 kPa	546.39
400 K, 20118 kPa	566.86
400 K, 25122 kPa	604.31
400 K, 30125 kPa	638.14
400 K, 35128 kPa	669.16
400 K, 40132 kPa	697.92
400 K, 45135 kPa	724.83
400 K, 50138 kPa	750.16
400 K, 60145 kPa	796.98
400 K, 70152 kPa	839.66
400 K, 80159 kPa	879.05
400 K, 90166 kPa	915.76
400 K, 100174 kPa	950.23
419.99 K, 2103.3 kPa	280.02
419.99 K, 3102.8 kPa	305.08
419.99 K, 4103.6 kPa	326.49
419.99 K, 5104.3 kPa	345.41
419.99 K, 6105 kPa	362.51
419.99 K, 7105.6 kPa	378.2
419.99 K, 8106.4 kPa	392.76
419.99 K, 9107.1 kPa	406.4
419.99 K, 10108 kPa	419.26
